Reference: patent publication EP0623616A1, “Heterocyclic compounds and process for the preparation thereof” (EGIS GYOGYSZERGYAR RT., priority 1993, dated 1994)
Where two headings read alike, the source gives them in different places.

Legend:
[1] = system: Male Wistar rats; assay: Conditioned avoidance response inhibition (shuttle box); type: in vivo; settings: for Conditioned relfex ID50: rats, 50% inhibiting dose, dosing one hour before the measurement, oral
Method: The antipsychotic (neuroleptic) effect was measured by the inhibition of the learned conditioned avoidance reflex. The male Wistar rats used for the study were of 120 to 150 g body weight at the beginning of learning. A shuttle box was used as experimental device, it consisted of two parts, 24x24,5x23 cm each, separated by a wall with a 6x9 cm gate. In response to a suitable warning stimulus, in order to avoid the punishing (unconditioned) stimulus, animals within the box passed through the gate from one part to the other. The warning, i.e. conditioned stimulus (CS), a white light (1 Hz) blinking for 15 seconds, was applied at the actual place of the animal. The unconditioned stimulus (US), in form of 0,6 mA intensity electric shock, was randomly applied to the paw during the last 5 seconds of the conditioned stimulus. The animal's movement during the CS and US from one part of the box to the other was defined as avoidance and escape response, respectively. Both responses ceased the actual stimulus and stopped the trial. The time elapsed until the next trial (intertrial interval, ITI) was 15 seconds. While one experiment was carried out daily, an experiment consisted of 80 trials. Learning efficiency was expresses as percentage of the successful to the total avoidances. Effect of the neuroleptic drugs was examined in animals with stabilized conditioned reflexes and with at least 75% learning efficiency. Dosing was carried out once a week, one hour before the measurement in the shuttle box. To calculate the neuroleptic effect (50% inhibiting dose, ID₅₀), the results obtained after the treatment were compared to those obtained on the previous day (controls).

[2] = system: Male rats belonging to the Spraghe Dawley strain; assay: Elevated plus maze test on rat; type: in vivo; settings: for MED: p.o., minimum effective dose causing a significant increase of time spent on the open arms, rats, pretreatment 60 minutes
Method: The test was carried out with the aid of a wooden plus-shaped maze elevated to a height of 50 cm. Two arms (100 cm long and 15 cm wide) - opposite to one another - were enclosed up to a height of 40 cm along their longer sides and at the end. The other two arms were without walls (open arms). The central 15x15 cm part was open. Male rats belonging to the Spraghe Dawley strain and weighing 220 to 260 g were used as test animals. After pretreatment lasting 60 minutes the animals were placed into the central part of the maze. During the 5 minutes observation period the following parameters were recorded: • time spent on the open arms • time spent on the closed arms • number of open arm entries • number of closed arm entries.
The drug effect was expressed as percent increase of the time spent on the open arms and number of open arm entries. The minimum effective dose which caused a significant increase of the time spent on the open arms was calculated for every substance [Pelow, S., Chopin, P., File, S.E., Briley, M.:J. Neurosci. Methods 14, 149-167 (1985)].

[3] = system: mice; assay: Effect on the spontaneous motor activity (method of Borsy et al., 10-channel Dews system); type: in vivo; settings: for Mobility inhibition ID50: treated orally, 1 hour after treatment, interruptions of infrared beam within 30 minutes
Method: The test was carried out according to the method of Borsy et al. Groups consisting of 3 mice each were treated orally with different doses of the compounds to be tested 1 hour after treatment with the test compound or the vehicle the animals were placed into a 10-channel Dews system equipment. In this equipment the number of interruptions of infrared beam within 30 minutes was counted. From these date 50% inhibiting doses (IC₅₀) were determined with the aid of a line of regression [Borsy, J., Csanyi, E., Lazar, I.: Arch. Int. Pharmacodyn. 124, a (1960)].

[4] = system: Male Wistar rats; assay: Vogel test (drinking conflict test); type: in vivo; settings: for MED: minimum effective dose, increase of tolerated shocks, rats, intraperitoneally half an hour before testing
Method: Male Wistar rats of 160 to 180 g body weight were kept free of food and drinking water for 24 and 48 hours, respectively. Test and carrier substances were administered intraperitoneally half an hour before testing. Animals within the experimental chamber were provided with drinking water through an inserted tube. After the animals' each twenty lapping for water the device emitted a 2 mA intensity electric shock through the drinking tube. During 5 minutes the shocks tolerated by the animals in order to quench their thirst were counted. The effect of treatment was expressed as the % increase of the tolerated shocks. The minimum effective dose (MED) was determined for each test compound [Vogel, J.R., Beer, B., Clody, D.E.:Psychopharmacologia (Berl.)21, 1(1971)].

[5] = system: Male Wistar rats; settings: value taken from literature (J. Med. Chem. 29(3), 363(1986); Drugs of Future 10(II), 731(1985)); cited from earlier work
[6] = system: mice; settings: value taken from literature (Drugs of Future 10(II), 731 (1985)); cited from earlier work
[7] = Vogel test, ratio of MED values

Compound	Conditioned relfex ID50 [1]	MED [2]	Mobility inhibition ID50 [3]	MED [4]	also measured
O=C(CCCN1CCC(O)(c2ccc(Cl)cc2)CC1)c1ccc(F)cc1 [Haloperidol]	0,6 mg/kg	–	–	–	–
Cc1nc2sccn2c(=O)c1CCN1CCC(=C(c2ccc(F)cc2)c2ccc(F)cc2)CC1 [Ritanserin]	–	5,0 mg/kg	–	–	–
CN1C(=O)CN=C(c2ccccc2)c2cc(Cl)ccc21 [Diazepam]	–	–	23,0 mg/kg	–	–
8-{4-[4-(1,2-Benzisothiazol-3-yl)-1-piperazinyl]-but-2-ynyl}-8-azaspiro[4,5]decane-7,9-dione [Example 1]	30,0 mg/kg	2,5 mg/kg	ineffective(>100) mg/kg	5.0 mg/kg	effectiveness relative to chlorodiazepoxide [4, 7]: twice as effective; times as effective as Meprobamate [4, 7]: 5; influence on the conditioned avoidance response ([1]; up to an oral dose of 30 mg/kg, result in words): does not influence the conditioned avoidance response; effectiveness relative to Ritanserin ([2]; elevated plus maze, ratio of MED values): twice as effective; influence on the spontaneous motor activity ([3]; result in words): does not influence the spontaneous motor activity
CCCC(C)(COC(N)=O)COC(N)=O [Meprobamate]	–	>10,0 mg/kg	–	25.0 mg/kg	–
CNC1=Nc2ccc(Cl)cc2C(c2ccccc2)=[N+]([O-])C1 [Chlorodiazepoxide]	–	–	56,0 mg/kg	10.0 mg/kg	–
CN(C)CCCN1c2ccccc2Sc2ccc(Cl)cc21 [Chloropromazine]	13,2 mg/kg	–	–	–	–
O=C1CC2(CCCC2)CC(=O)N1CCCCN1CCN(c2nsc3ccccc23)CC1 [Thiaspiron, thiaspiron]	–	–	–	–	Conditioned relfex ID50 [5]: 10,5 mg/kg; Mobility inhibition ID50 [6]: 8,4 mg/kg
